Ten compounds from ChEMBL document CHEMBL1201862, “PubChem BioAssay data set” (2004) can be followed below.

Common to all, as to experiment: DTP human tumour cell line panel, 48 h
Experiment [1] concerns SK-MEL-2.
In experiment [2] the test system is SW-620.
Experiment [3] concerns RPMI-8226.
Experiment [4] has as its system NCI-H460.
For experiment [5], the system named is U-251.
The test system of experiment [6] is NCI-H23.
The test system of experiment [7] is A549.
Experiment [8] concerns PC-3.
Experiment [9] relates to SK-MEL-5.
The subject of experiment [10] is SK-OV-3.
The subject of experiment [11] is TK-10.
The subject of experiment [12] is MDA-MB-435.
The test system of experiment [13] is HCT-116.
In experiment [14] the test system is COLO 205.
Experiment [15] has as its system MOLT-4.
Experiment [16] relates to UACC-257.
In experiment [17] the test system is T47D.
The subject of experiment [18] is DU-145.
Experiment [19] has as its system NCI-H522.

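96-well plates; 48 h exposure; 5 concentrations. Endpoints by linear interpolation between flanking doses. Not reached: highest tested concentration assigned. GI50: concentration for 50% inhibition of growth.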 The source made the active and inactive calls. Cut-off read from the data, not from the text of the source: active = GI50 up to about 1.1 µM and inactive = higher. Where only a bound is given, the exact number is not on record here.

Take `Cc1ccc2c(c1C)-c1c(ccc(C)c1C)C(=O)C2=O`: the GI50 in experiment [1] was 1.19 µM (inactive); in experiment [2] it was 0.378 µM (active); in [3], 0.193 µM (active); in [4], 0.966 µM (active); in [5] it was 0.432 µM (active); in [6] it was 0.53 µM (active). Moreover, the GI50 is 0.887 µM (active) in experiment [7]; 0.265 µM (active) in [8]; 0.367 µM (active) in experiment [9]; 2.15 µM (inactive) in experiment [10]; 1.18 µM (inactive) in [11]; 0.21 µM (active) in [12]. Also, the GI50 in experiment [13] was 0.361 µM (active); in experiment [14] it was 2.02 µM (inactive); in experiment [15] it was 0.2 µM (active); in experiment [16] it was 1.37 µM (inactive); in experiment [17], 1.81 µM (inactive); in [18], 1.14 µM (inactive). For the same compound, the concentration for 50% growth inhibition (GI50) in [19] was 0.148 µM (active).

Turning to `Cc1coc2c1CC1(C)C(CCC(O)C1C)C2` (stereo not given), the GI50 in experiment [1], in [2], in [3], in experiment [4], in [5] and in [6] was > 100 µM (inactive) each time. Besides, the GI50 in experiment [7], in experiment [8], in experiment [9], in experiment [10], in experiment [11] and in experiment [12] was > 100 µM (inactive) each time. Also, the GI50 in experiment [13], in experiment [14], in [15], in experiment [16], in experiment [17] and in experiment [18] was > 100 µM (inactive) throughout. The GI50 in [19] was > 100 µM (inactive).

`C[C@]12[C@@H]3CC[C@H]1[C@@H](OC(=O)Nc1cc([N+](=O)[O-])cc([N+](=O)[O-])c1)C(=O)N2CC3`: the GI50 in experiment [1], in experiment [2], in experiment [3], in [4], in experiment [5] and in [6] was > 100 µM (inactive) throughout. Also, the GI50 in experiment [7], in experiment [8], in experiment [9], in experiment [10], in experiment [11] and in experiment [12] was > 100 µM (inactive) in each case. The GI50 in [13], in experiment [14], in [15], in [16], in experiment [17] and in [18] was > 100 µM (inactive) in each case. In addition, the GI50 in experiment [19] is > 100 µM (inactive).

As for `C/C=C(\C)C(=O)OC1CC(OC(C)=O)C2(C(=O)OC)COC3C2C1(C)C1C2(C(=O)OC)OCC1(C3O)C1(O)C3CC(C4(O)C=COC4O3)C1(C)O2` (stereo not given), the GI50 in experiment [1], in [2], in experiment [3], in experiment [4], in experiment [5] and in [6] was > 100 µM (inactive) throughout. The GI50 in experiment [7] is > 100 µM (inactive); in [8], > 100 µM (inactive); in [9], > 100 µM (inactive); in experiment [10], > 100 µM (inactive); in [11] it was > 100 µM (inactive); in [12], 40.8 µM (inactive). In addition, the GI50 in experiment [13], in [14], in [15], in [16], in [17] and in [18] was > 100 µM (inactive) each time. The GI50 in experiment [19] is > 100 µM (inactive).

On to `O=[N+]([O-])C(=C(N1CCCCC1)N1CCCCC1)/C(Cl)=C(\Cl)[N+](=O)[O-]`, for which the GI50 was 16.9 µM (inactive) in experiment [1]; 3.36 µM (inactive) in experiment [2]; 2.18 µM (inactive) in experiment [3]; 22.5 µM (inactive) in experiment [4]; 18.7 µM (inactive) in experiment [5]; 5.6 µM (inactive) in experiment [6]. Also, the GI50 was 19.5 µM (inactive) in experiment [7]; 14.3 µM (inactive) in [8]; 5.69 µM (inactive) in [9]; 23.2 µM (inactive) in experiment [10]; 5.41 µM (inactive) in [11]; 5.01 µM (inactive) in experiment [12]. For the same compound, the GI50 was 2.61 µM (inactive) in experiment [13]; 5.01 µM (inactive) in experiment [14]; 1.14 µM (inactive) in [15]; 7.71 µM (inactive) in experiment [16]; 1.84 µM (inactive) in experiment [17]; 2.88 µM (inactive) in [18]. Moreover, in experiment [19], the GI50 is 1.76 µM (inactive).

For `c1ccc(CN2CCN3CCN(CC2)CCN(Cc2ccccc2)CC3)cc1`, the GI50 in experiment [1] was 2.82 µM (inactive); in experiment [2], 13.7 µM (inactive); in [3], 2.14 µM (inactive); in experiment [4], 6.15 µM (inactive); in experiment [5], 4.29 µM (inactive); in [6], 5.05 µM (inactive). In addition, the GI50 in [7] is 11.5 µM (inactive); in [8], 4.97 µM (inactive); in experiment [9], 1.98 µM (inactive); in experiment [10] it was 16.4 µM (inactive); in experiment [11] it was 11.4 µM (inactive); in experiment [12], 3.15 µM (inactive). The GI50 is 4.09 µM (inactive) in experiment [13]; 1.93 µM (inactive) in [14]; 8.75 µM (inactive) in [15]; 3.04 µM (inactive) in experiment [16]; 4.08 µM (inactive) in experiment [17]; 12.4 µM (inactive) in experiment [18]. Also, the GI50 in experiment [19] was 4.36 µM (inactive).

With `COc1ccc(NC(C)=O)cc1N1C(=O)/C(=C\c2cc(OC)c(OC)c(OC)c2)SC1c1ccccc1` (stereo not given), the GI50 was 57.9 µM (inactive) in [1]; 52.7 µM (inactive) in [2]; 17.4 µM (inactive) in experiment [3]; 43.2 µM (inactive) in [4]; 34.7 µM (inactive) in [5]; 72.8 µM (inactive) in experiment [6]. The GI50 in experiment [7] is 57.8 µM (inactive); in [8], 31.5 µM (inactive); in experiment [9] it was 33.7 µM (inactive); in experiment [10], 82.2 µM (inactive); in experiment [11], > 100 µM (inactive); in experiment [12], 36 µM (inactive). Besides, the GI50 is 30 µM (inactive) in [13]; 39.6 µM (inactive) in [14]; 19.3 µM (inactive) in experiment [15]; 67.9 µM (inactive) in [16]; 33.5 µM (inactive) in [17]; 91.4 µM (inactive) in experiment [18]. In addition, in experiment [19], the GI50 was 28.6 µM (inactive).

Take `COc1ccc(CSCc2cc(OC)c(OC)c(OC)c2)cc1`: the GI50 in experiment [1] was > 100 µM (inactive); in [2], > 83.2 µM (inactive); in experiment [3], > 55 µM (inactive); in experiment [4], > 100 µM (inactive); in [5] it was > 100 µM (inactive); in [6], > 76 µM (inactive). Moreover, the GI50 is > 100 µM (inactive) in experiment [7]; > 31.6 µM (inactive) in experiment [8]; 21.2 µM (inactive) in experiment [9]; > 100 µM (inactive) in experiment [10]; > 100 µM (inactive) in experiment [11]; 4.43 µM (inactive) in experiment [12]. Also, the GI50 is > 31.6 µM (inactive) in [13]; > 100 µM (inactive) in [14]; > 48.5 µM (inactive) in experiment [15]; > 31.6 µM (inactive) in experiment [16]; 8 µM (inactive) in experiment [17]; > 100 µM (inactive) in [18]. In addition, in [19], the GI50 is > 100 µM (inactive).

Take `O=C1C2C(C(=O)N1c1ccccc1)C1(c3ccccc3)CCC2(C(=O)c2ccccc2)O1` (stereo not given): the GI50 in experiment [1], in [2], in experiment [3], in experiment [4], in experiment [5] and in [6] was > 10 µM (inactive) in each case. Further, the GI50 in experiment [7], in experiment [8], in experiment [9], in experiment [10], in experiment [11] and in [12] was > 10 µM (inactive) each time. Moreover, the GI50 in [13] is > 10 µM (inactive); in experiment [14] it was > 10 µM (inactive); in [15], 9.82 µM (inactive); in experiment [16], > 10 µM (inactive); in experiment [17], > 10 µM (inactive); in [18], > 10 µM (inactive). Besides, the GI50 in experiment [19] is > 10 µM (inactive).

Turning to `O=C1C(c2c(O)[nH]c3ccc(Cl)cc23)=Nc2ccccc21`, the GI50 is 5.55 µM (inactive) in experiment [1]; 25.4 µM (inactive) in experiment [2]; 5.09 µM (inactive) in experiment [3]; 12.1 µM (inactive) in experiment [4]; 4.98 µM (inactive) in experiment [5]; 9.12 µM (inactive) in experiment [6]. Moreover, the GI50 in experiment [7] was 3.58 µM (inactive); in experiment [8], 3.28 µM (inactive); in [9] it was 3.18 µM (inactive); in experiment [10], 3.08 µM (inactive); in experiment [11], 4.23 µM (inactive); in experiment [12] it was 4.3 µM (inactive). For the same compound, the GI50 was 1.98 µM (inactive) in experiment [13]; 20 µM (inactive) in [14]; > 47 µM (inactive) in experiment [15]; > 53.5 µM (inactive) in experiment [16]; 3.7 µM (inactive) in [17]; 2.81 µM (inactive) in experiment [18]. For the same compound, the GI50 in [19] was 10.6 µM (inactive).

As a reminder, the GI50 is the concentration at which growth is held to half of that of the control.
